Experimental data reported in US8299065B2, “Antibacterial condensed thiazoles” (Biota Europe Ltd., priority 2007, dated 2012).
Values after ≈ are worked out from the molar mass of the structure shown.

tested on: Enterococcus faecalis ATCC 29212; assay: MIC testing against Enterococcus faecalis ATCC 29212; assay type: cell-based; conditions: ATCC29212, read-out: MICs against Enterococcus faecalis, Activity
Protocol: Minimum Inhibitory Concentration (MIC) Testing Compounds of this invention were tested for antimicrobial activity by susceptibility testing in liquid or on solid media. MICs for compounds against each strain were determined by the broth microdilution or agar dilution method according to the guidelines of the Clinical Laboratories and Standards Institute, formerly the National Committee for Clinical Laboratory Standards (Clinical Laboratories and Standards Institute. Methods for Dilution Antimicrobial Susceptibility Tests for Bacteria That Grow Aerobically; Approved Standard—Seventh Edition. Document M7-A7. CLSI, Wayne, Pa., 2006; Clinical Laboratories and Standards Institute. Methods for Antimicrobial Susceptibility Testing of Anaerobic Bacteria; Approved Standard—Sixth Edition. Document M11-A6. CLSI, Wayne, Pa., 2004).

`CCNC(=O)Nc1nc2cc(-c3cnc(N4CCN(C)CC4)nc3)c(F)cc2s1` [Example 57, 1-ethyl-3-(6-fluoro-5-(2-(4-methylpiperazin-1-yl)pyrimidin-5-yl)benzo[d]thiazol-2-yl)urea] and `CCNC(=O)Nc1nc2cc(-c3cnc(N4CCNCC4)nc3)c(F)cc2s1.Cl` [Example 42, 1-ethyl-3-(6-fluoro-5-(2-(piperazin-1-yl)pyrimidin-5-yl)benzo[d]thiazol-2-yl)urea hydrochloride salt] fall in the same range of MIC: 2 to 16 µg/mL (≈ 4.81 to 38.5 µM) for the first, 2 to 16 µg/mL for the second.

First: CCNC(=O)Nc1nc2cc(-c3cnc(N4CCCC(C(=O)O)C4)nc3)c(F)cc2s1 (stereo not shown) [Example 46, 1-(5-(2-(3-ethylureido)-6-fluorobenzo[d]thiazol-5-yl)pyrimidin-2-yl)piperidine-3-carboxylic acid]
Second: CCNC(=O)Nc1nc2cc(-c3cnc(N4CCC(C(=O)O)CC4)nc3)c(F)cc2s1 [Example 44, 1-(5-(2-(3-ethylureido)-6-fluorobenzo[d]thiazol-5-yl)pyrimidin-2-yl)piperidine-4-carboxylic acid]
The MIC of the first is higher: 0.25 to 1 µg/mL (≈ 0.562 to 2.25 µM) for the first, under 0.25 µg/mL for the second.

First: CCNC(=O)Nc1nc2cc(-c3cc(C)oc(=O)c3)c(F)cc2s1 [Example 40, 1-ethyl-3-(6-fluoro-5-(6-methyl-2-oxo-2H-pyran-4-yl)benzo[d]thiazol-2-yl)urea]
Second: CCNC(=O)Nc1nc2cc(-c3cc(C)oc(=O)c3)ccc2s1 [Example 14, 1-ethyl-3-(5-(6-methyl-2-oxo-2H-pyran-4-yl)benzo[d]thiazol-2-yl)urea]
The MIC of the first is lower: 0.25 to 1 µg/mL (≈ 0.72 to 2.88 µM) for the first, 2 to 16 µg/mL (≈ 6.07 to 48.6 µM) for the second.

Compared with `CCNC(=O)Nc1nc2cc(-c3cccnc3)c(C)cc2s1` [Example 73, 1-ethyl-3-(6-methyl-5-(pyridin-3-yl)benzo[d]thiazol-2-yl)urea], `CCNC(=O)Nc1nc2cc(-c3cccnc3)ccc2s1` [Example 1, 1-Ethyl-3-(5-pyridin-3-yl-benzothiazol-2-yl)-urea] is lower in MIC: 2 to 16 µg/mL (≈ 6.4 to 51.2 µM) for the first, 0.25 to 1 µg/mL (≈ 0.838 to 3.35 µM) for the second.

`CCNC(=O)Nc1nc2cc(-c3cc(C)n(CC4CCCN4C(=O)OC(C)(C)C)c(=O)c3)c(F)cc2s1` (stereo not shown) [Example 53, tert-butyl 2-((4-(2-(3-ethylureido)-6-fluorobenzo[d]thiazol-5-yl)-6-methyl-2-oxopyridin-1(2H)-yl)methyl)pyrrolidine-1-carboxylate] and `CCNC(=O)Nc1nc2cc(-c3cc(C)n(CC4CCN(C)C4)c(=O)c3)c(F)cc2s1` (stereo not shown) [Example 50, 1-ethyl-3-(6-fluoro-5-(6-methyl-1-((1-methylpyrrolidin-3-yl)methyl)-2-oxo-1,2-dihydropyridin-4-yl)benzo[d]thiazol-2-yl)urea] fall in the same range of MIC: 2 to 16 µg/mL (≈ 3.78 to 30.2 µM) for the first, 2 to 16 µg/mL (≈ 4.51 to 36.1 µM) for the second.

`CCNC(=O)Nc1nc2cc(-c3ccc(CC(=O)NC)nc3)ccc2s1` [Example 2, 2-{5-[2-(3-Ethyl-ureido)-benzothiazol-5-yl]-pyridin-2-yl}-N-methyl-acetamide] and `CCNC(=O)Nc1nc2cc(-c3ccc(NC(C)=O)nc3)ccc2s1` [Example 26, N-(5-(2-(3-ethylureido)benzo[d]thiazol-5-yl)pyridin-2-yl)acetamide] fall in the same range of MIC: 2 to 16 µg/mL (≈ 5.41 to 43.3 µM) for the first, 2 to 16 µg/mL (≈ 5.63 to 45 µM) for the second.

`CCNC(=O)Nc1nc2cc(-c3cc[nH]n3)ccc2s1` [Example 17, 1-(5-(1H-pyrazol-3-yl)benzo[d]thiazol-2-yl)-3-ethylurea] and `CCNC(=O)Nc1nc2cc(-c3cn[nH]c3)ccc2s1` [Example 21, 1-(5-(1H-pyrazol-4-yl)benzo[d]thiazol-2-yl)-3-ethylurea] fall in the same range of MIC: 2 to 16 µg/mL (≈ 6.96 to 55.7 µM) for the first, 2 to 16 µg/mL (≈ 6.96 to 55.7 µM) for the second.

`CCNC(=O)Nc1nc2cc(-c3cc(C)n(Cc4cccc(C)n4)c(=O)c3)ccc2s1` [Example 33, 1-ethyl-3-(5-(6-methyl-1-((6-methylpyridin-2-yl)methyl)-2-oxo-1,2-dihydropyridin-4-yl)benzo[d]thiazol-2-yl)urea] and `CCNC(=O)Nc1nc2cc(-c3cc(C)n(Cc4ccccn4)c(=O)c3)ccc2s1` [Example 35, 1-ethyl-3-(5-(6-methyl-2-oxo-1-(pyridin-2-ylmethyl)-1,2-dihydropyridin-4-yl)benzo[d]thiazol-2-yl)urea] fall in the same range of MIC: 0.25 to 1 µg/mL (≈ 0.577 to 2.31 µM) for the first, 0.25 to 1 µg/mL (≈ 0.596 to 2.38 µM) for the second.

`CCNC(=O)Nc1nc2cc(-c3cc(C)n(C(C)c4ccc(C)nc4)c(=O)c3)c(F)cc2s1` (stereo not shown) [Example 78, 1-ethyl-3-(6-fluoro-5-{6-methyl-1-[1-(6-methyl-pyridin-3-yl)-ethyl]-2-oxo-1,2-dihydro-pyridin-4-yl}-benzothiazol-2-yl)-urea] and `CCNC(=O)Nc1nc2cc(-c3cc(C)n(Cc4cn(C)cn4)c(=O)c3)c(F)cc2s1` [Example 52, 1-ethyl-3-(6-fluoro-5-(6-methyl-1-((1-methyl-1H-imidazol-4-yl)methyl)-2-oxo-1,2-dihydropyridin-4-yl)benzo[d]thiazol-2-yl)urea] fall in the same range of MIC: 0.25 to 1 µg/mL (≈ 0.537 to 2.15 µM) for the first, 0.25 to 1 µg/mL (≈ 0.568 to 2.27 µM) for the second.

First: CCNC(=O)Nc1nc2cc(-c3ccc(=O)n(CCOCC)c3)ccc2s1 [Example 13, 1-(5-(1-(2-ethoxyethyl)-6-oxo-1,6-dihydropyridin-3-yl)benzo[d]thiazol-2-yl)-3-ethylurea]
Second: CCNC(=O)Nc1nc2cc(-c3cc(C)n(CCOC)c(=O)c3)ccc2s1 [Example 31, 1-ethyl-3-(5-(1-(2-methoxyethyl)-6-methyl-2-oxo-1,2-dihydropyridin-4-yl)benzo[d]thiazol-2-yl)urea]
The MIC of the first is higher: 2 to 16 µg/mL (≈ 5.17 to 41.4 µM) for the first, 0.25 to 1 µg/mL (≈ 0.647 to 2.59 µM) for the second.

First: CCNC(=O)Nc1nc2cc(-c3cnn(CCN4CCOCC4)c3)ccc2s1 [Example 16, 1-ethyl-3-(5-(1-(2-morpholinoethyl)-1H-pyrazol-4-yl)benzo[d]thiazol-2-yl)urea]
Second: CCNC(=O)Nc1nc2cc(-c3cnc4c(c3)OCCN4C)ccc2s1 [Example 19, 1-ethyl-3-(5-(4-methyl-3,4-dihydro-2H-pyrido[3,2-b][1,4]oxazin-7-yl)benzo[d]thiazol-2-yl)urea]
The MIC of the first is higher: 2 to 16 µg/mL (≈ 4.99 to 39.9 µM) for the first, 0.25 to 1 µg/mL (≈ 0.677 to 2.71 µM) for the second.

`CCNC(=O)Nc1nc2cc(-c3ccn(C)c(=O)c3)c(OC)cc2s1` [Example 72, 1-ethyl-3-(6-methoxy-5-(1-methyl-2-oxo-1,2-dihydropyridin-4-yl)benzo[d]thiazol-2-yl)urea] and `CCNC(=O)Nc1nc2cc(-c3ccn(C)c(=O)c3)c(F)cc2s1` [Example 61, 1-ethyl-3-(6-fluoro-5-(1-methyl-2-oxo-1,2-dihydropyridin-4-yl)benzo[d]thiazol-2-yl)urea] fall in the same range of MIC: 0.25 to 1 µg/mL (≈ 0.697 to 2.79 µM) for the first, 0.25 to 1 µg/mL (≈ 0.722 to 2.89 µM) for the second.

First: CCNC(=O)Nc1nc2cc(-c3cnc(N4CCC(C(=O)OC)CC4)nc3)c(F)cc2s1 [Example 43, methyl 1-(5-(2-(3-ethylureido)-6-fluorobenzo[d]thiazol-5-yl)pyrimidin-2-yl)piperidine-4-carboxylate]
Second: CCNC(=O)Nc1nc2cc(-c3cnn(C(C)C(=O)OC)c3)c(F)cc2s1 (stereo not shown) [Example 47, methyl 2-(4-(2-(3-ethylureido)-6-fluorobenzo[d]thiazol-5-yl)-1H-pyrazol-1-yl)propanoate]
The MIC of the first is lower: 0.25 to 1 µg/mL (≈ 0.545 to 2.18 µM) for the first, 2 to 16 µg/mL (≈ 5.11 to 40.9 µM) for the second.

First: CCNC(=O)Nc1nc2cc(-c3cnc(-n4ccccc4=O)cn3)ccc2s1 [Example 10, 1-ethyl-3-(5-(5-(2-oxopyridin-1(2H)-yl)pyrazin-2-yl)benzo[d]thiazol-2-yl)urea]
Second: CCNC(=O)Nc1nc2cc(-c3cncc4ccccc34)ccc2s1 [Example 20, 1-ethyl-3-(5-(isoquinolin-4-yl)benzo[d]thiazol-2-yl)urea]
The MIC of the first is higher: 2 to 16 µg/mL (≈ 5.1 to 40.8 µM) for the first, 0.25 to 1 µg/mL (≈ 0.718 to 2.87 µM) for the second.

First: CCNC(=O)Nc1nc2cc(-c3ccc(NC(C)=O)nc3)c(F)cc2s1 [Example 38, N-(5-(2-(3-ethylureido)-6-fluorobenzo[d]thiazol-5-yl)pyridin-2-yl)acetamide]
Second: CCNC(=O)Nc1nc2cc(-c3ccc(CC(=O)NC)nc3)c(F)cc2s1 [Example 68, 2-{5-[2-(3-ethyl-ureido)-6-fluoro-benzothiazol-5-yl]-pyridin-2-yl}-N-methyl-acetamide]
The MIC of the first is lower: 0.25 to 1 µg/mL (≈ 0.669 to 2.68 µM) for the first, 2 to 16 µg/mL (≈ 5.16 to 41.3 µM) for the second.

`CCNC(=O)Nc1nc2cc(-c3cnc(-n4ccnc4)nc3)ccc2s1` [Example 28, 1-(5-(2-(1H-imidazol-1-yl)pyrimidin-5-yl)benzo[d]thiazol-2-yl)-3-ethylurea] and `CCNC(=O)Nc1nc2cc(-c3ccc4nccn4c3)ccc2s1` [Example 6, 1-ethyl-3-(5-(imidazo[1,2-a]pyridin-6-yl)benzo[d]thiazol-2-yl)urea] fall in the same range of MIC: 2 to 16 µg/mL (≈ 5.47 to 43.8 µM) for the first, 2 to 16 µg/mL (≈ 5.93 to 47.4 µM) for the second.

`CCNC(=O)Nc1nc2cc(-c3cc[nH]c(=O)c3)ccc2s1` [Example 29, 1-ethyl-3-(5-(2-oxo-1,2-dihydropyridin-4-yl)benzo[d]thiazol-2-yl)urea] and `CCNC(=O)Nc1nc2cc(-c3ccc(C(=O)OC)nc3)ccc2s1` [Example 15, methyl 5-(2-(3-ethylureido)benzo[d]thiazol-5-yl)picolinate] fall in the same range of MIC: 2 to 16 µg/mL (≈ 6.36 to 50.9 µM) for the first, 2 to 16 µg/mL (≈ 5.61 to 44.9 µM) for the second.

First: CCNC(=O)Nc1nc2cc(-c3cncc(OC)c3)c(F)cc2s1 [Example 58, 1-ethyl-3-(6-fluoro-5-(5-methoxypyridin-3-yl)benzo[d]thiazol-2-yl)urea]
Second: CCNC(=O)Nc1nc2cc(-c3cc(OC)ccn3)c(F)cc2s1 [Example 56, 1-ethyl-3-[6-fluoro-5-(4-methoxy-pyridin-2-yl)-benzothiazol-2-yl]-urea]
The MIC of the first is lower: 0.25 to 1 µg/mL (≈ 0.722 to 2.89 µM) for the first, 2 to 16 µg/mL (≈ 5.77 to 46.2 µM) for the second.

`CCNC(=O)Nc1nc2cc(-c3cnn(CC(=O)OCC)c3)c(F)cc2s1` [Example 39, ethyl 2-(4-(2-(3-ethylureido)-6-fluorobenzo[d]thiazol-5-yl)-1H-pyrazol-1-yl)acetate] and `CCNC(=O)Nc1nc2cc(-c3cc(C)n(CCCN(C)C)c(=O)c3)c(F)cc2s1` [Example 54, 1-(5-(1-(3-(dimethylamino)propyl)-6-methyl-2-oxo-1,2-dihydropyridin-4-yl)-6-fluorobenzo[d]thiazol-2-yl)-3-ethylurea] fall in the same range of MIC: 2 to 16 µg/mL (≈ 5.11 to 40.9 µM) for the first, 2 to 16 µg/mL (≈ 4.63 to 37.1 µM) for the second.

First: CCNC(=O)Nc1nc2cc(-c3cc(C)n(Cc4cccnc4)c(=O)c3)ccc2s1 [Example 34, 1-ethyl-3-(5-(6-methyl-2-oxo-1-(pyridin-3-ylmethyl)-1,2-dihydropyridin-4-yl)benzo[d]thiazol-2-yl)urea]
Second: CCNC(=O)Nc1nc2cc(-c3ccn(Cc4ncccc4OC)c(=O)c3)c(F)cc2s1 [Example 79, 1-Ethyl-3-{6-fluoro-5-[1-(3-methoxy-pyridin-2-ylmethyl)-2-oxo-1,2-dihydro-pyridin-4-yl]-benzothiazol-2-yl}-urea]
The MIC of the first is higher: 0.25 to 1 µg/mL (≈ 0.596 to 2.38 µM) for the first, under 0.25 µg/mL for the second.
